Reference: PubChem BioAssay (NCI)
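1) Cells in 96-well plates. 2) Compound, 48 h, 5 concentrations. 3) Linear interpolation between surrounding doses. 4) Unreached endpoint = highest concentration. Here, GI50 denotes the concentration required for 50% inhibition of growth. At the TGI there is no net growth.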

Key:
Test in all cases: inhibition of tumour cell growth, NCI panel, 48 h
786-0 renal = system: 786-0 renal
A498 renal = system: A498 renal
A549 NSCLC = system: A549 NSCLC
ACHN renal = system: ACHN renal
BT-549 breast = system: BT-549 breast
CAKI-1 renal = system: CAKI-1 renal
CCRF-CEM leukemia = system: CCRF-CEM leukemia
COLO 205 colon = system: COLO 205 colon
DU-145 prostate = system: DU-145 prostate
EKVX NSCLC = system: EKVX NSCLC
HCC-2998 colon = system: HCC-2998 colon
HCT-116 colon = system: HCT-116 colon
HCT-15 colon = system: HCT-15 colon
HL-60(TB) leukemia = system: HL-60(TB) leukemia
HOP-62 NSCLC = system: HOP-62 NSCLC
HOP-92 NSCLC = system: HOP-92 NSCLC
HS 578T breast = system: HS 578T breast
K-562 leukemia = system: K-562 leukemia
KM12 colon = system: KM12 colon
LOX IMVI melanoma = system: LOX IMVI melanoma
M14 melanoma = system: M14 melanoma
MCF7 breast = system: MCF7 breast
MDA-MB-231 breast = system: MDA-MB-231 breast
MDA-MB-435 = system: MDA-MB-435
MOLT-4 leukemia = system: MOLT-4 leukemia
NCI-H226 lung = system: NCI-H226 lung
NCI-H23 lung = system: NCI-H23 lung
NCI-H460 lung = system: NCI-H460 lung
NCI-H522 lung = system: NCI-H522 lung
NCI/ADR-RES ovarian = system: NCI/ADR-RES ovarian
OVCAR-3 ovarian = system: OVCAR-3 ovarian
OVCAR-4 ovarian = system: OVCAR-4 ovarian
OVCAR-5 ovarian = system: OVCAR-5 ovarian
OVCAR-8 ovarian = system: OVCAR-8 ovarian
PC-3 prostate = system: PC-3 prostate
RPMI-8226 leukemia = system: RPMI-8226 leukemia
RXF 393 renal = system: RXF 393 renal
SF-268 CNS = system: SF-268 CNS
SF-295 CNS = system: SF-295 CNS
SF-539 CNS = system: SF-539 CNS
SK-MEL-2 melanoma = system: SK-MEL-2 melanoma
SK-MEL-28 melanoma = system: SK-MEL-28 melanoma
SK-MEL-5 melanoma = system: SK-MEL-5 melanoma
SK-OV-3 ovarian = system: SK-OV-3 ovarian
SN12C renal = system: SN12C renal
SNB-19 CNS = system: SNB-19 CNS
SNB-75 CNS = system: SNB-75 CNS
SR leukemia = system: SR leukemia
SW-620 colon = system: SW-620 colon
T-47D breast = system: T-47D breast
TK-10 renal = system: TK-10 renal
U251 CNS = system: U251 CNS
UACC-257 melanoma = system: UACC-257 melanoma
UACC-62 melanoma = system: UACC-62 melanoma

Compound: Cn1cc(-c2nc(-c3cn(C)c4ncccc34)cs2)c2cc(F)ccc21
- GI50 (786-0 renal): 2.57 µM
- TGI (786-0 renal): 12.8 µM
- GI50 (A498 renal): 1.91 µM
- TGI (A498 renal): 31.3 µM
- GI50 (A549 NSCLC): 1.74 µM
- TGI (A549 NSCLC): > 100 µM
- GI50 (ACHN renal): 2.96 µM
- TGI (ACHN renal): > 100 µM
- GI50 (BT-549 breast): 2.2 µM
- TGI (BT-549 breast): 37.6 µM
- GI50 (CAKI-1 renal): 0.776 µM
- TGI (CAKI-1 renal): 11.9 µM
- GI50 (CCRF-CEM leukemia): 2.41 µM
- TGI (CCRF-CEM leukemia): > 100 µM
- GI50 (COLO 205 colon): 1.44 µM
- TGI (COLO 205 colon): 7.49 µM
- GI50 (DU-145 prostate): 2.79 µM
- TGI (DU-145 prostate): 21.9 µM
- GI50 (EKVX NSCLC): 1.93 µM
- TGI (EKVX NSCLC): 74.3 µM
- GI50 (HCC-2998 colon): 0.962 µM
- TGI (HCC-2998 colon): 24.2 µM
- GI50 (HCT-116 colon): 0.775 µM
- TGI (HCT-116 colon): 41.2 µM
- GI50 (HCT-15 colon): 1.51 µM
- TGI (HCT-15 colon): > 100 µM
- GI50 (HL-60(TB) leukemia): 1.67 µM
- TGI (HL-60(TB) leukemia): 88.7 µM
- GI50 (HOP-62 NSCLC): 2.67 µM
- TGI (HOP-62 NSCLC): 84.7 µM
- GI50 (HOP-92 NSCLC): 2.31 µM
- TGI (HOP-92 NSCLC): 8.14 µM
- GI50 (HS 578T breast): 5.1 µM
- TGI (HS 578T breast): > 100 µM
- GI50 (K-562 leukemia): 0.358 µM
- TGI (K-562 leukemia): > 100 µM
- GI50 (KM12 colon): 0.61 µM
- TGI (KM12 colon): 14.6 µM
- GI50 (LOX IMVI melanoma): 1.15 µM
- TGI (LOX IMVI melanoma): 5.69 µM
- GI50 (M14 melanoma): 0.777 µM
- TGI (M14 melanoma): 12.4 µM
- GI50 (MCF7 breast): 0.528 µM
- TGI (MCF7 breast): 60.5 µM
- GI50 (MDA-MB-231 breast): 3.01 µM
- TGI (MDA-MB-231 breast): 22.2 µM
- GI50 (MDA-MB-435): 0.237 µM
- TGI (MDA-MB-435): 0.713 µM
- GI50 (MOLT-4 leukemia): 3.17 µM
- TGI (MOLT-4 leukemia): > 100 µM
- GI50 (NCI-H226 lung): 2.6 µM
- TGI (NCI-H226 lung): > 100 µM
- GI50 (NCI-H23 lung): 2.76 µM
- TGI (NCI-H23 lung): > 100 µM
- GI50 (NCI-H460 lung): 1.12 µM
- TGI (NCI-H460 lung): 18.9 µM
- GI50 (NCI-H522 lung): 0.367 µM
- TGI (NCI-H522 lung): 7.57 µM
- GI50 (NCI/ADR-RES ovarian): 0.511 µM
- TGI (NCI/ADR-RES ovarian): 8.61 µM
- GI50 (OVCAR-3 ovarian): 0.379 µM
- TGI (OVCAR-3 ovarian): 2.24 µM
- GI50 (OVCAR-4 ovarian): 0.746 µM
- TGI (OVCAR-4 ovarian): > 100 µM
- GI50 (OVCAR-5 ovarian): 3.54 µM
- TGI (OVCAR-5 ovarian): > 100 µM
- GI50 (OVCAR-8 ovarian): 3.26 µM
- TGI (OVCAR-8 ovarian): > 100 µM
- GI50 (PC-3 prostate): 2.13 µM
- TGI (PC-3 prostate): 32 µM
- GI50 (RPMI-8226 leukemia): 3.65 µM
- TGI (RPMI-8226 leukemia): > 100 µM
- GI50 (RXF 393 renal): 1.51 µM
- TGI (RXF 393 renal): 4.77 µM
- GI50 (SF-268 CNS): 3.38 µM
- TGI (SF-268 CNS): 47.2 µM
- GI50 (SF-295 CNS): 0.709 µM
- TGI (SF-295 CNS): 6.18 µM
- GI50 (SF-539 CNS): 1.8 µM
- TGI (SF-539 CNS): 5.28 µM
- GI50 (SK-MEL-2 melanoma): 3.96 µM
- TGI (SK-MEL-2 melanoma): 37.2 µM
- GI50 (SK-MEL-28 melanoma): 2.42 µM
- TGI (SK-MEL-28 melanoma): > 100 µM
- GI50 (SK-MEL-5 melanoma): 0.847 µM
- TGI (SK-MEL-5 melanoma): 3.37 µM
- GI50 (SK-OV-3 ovarian): 2.4 µM
- TGI (SK-OV-3 ovarian): 21.2 µM
- GI50 (SN12C renal): 3.63 µM
- TGI (SN12C renal): > 100 µM
- GI50 (SNB-19 CNS): 2.89 µM
- TGI (SNB-19 CNS): > 100 µM
- GI50 (SNB-75 CNS): 1.27 µM
- TGI (SNB-75 CNS): 4.27 µM
- GI50 (SR leukemia): 0.565 µM
- TGI (SR leukemia): 17.8 µM
- GI50 (SW-620 colon): 1.23 µM
- TGI (SW-620 colon): > 100 µM
- GI50 (T-47D breast): 0.648 µM
- TGI (T-47D breast): 23.2 µM
- GI50 (TK-10 renal): 3.01 µM
- TGI (TK-10 renal): 38 µM
- GI50 (U251 CNS): 1.55 µM
- TGI (U251 CNS): > 100 µM
- GI50 (UACC-257 melanoma): 6.33 µM
- TGI (UACC-257 melanoma): > 100 µM
- GI50 (UACC-62 melanoma): 1.33 µM
- TGI (UACC-62 melanoma): > 100 µM
